# Measurements taken from patent US20090036448A1, “PYRIMIDINE DERIVATIVES AND METHODS OF TREATMENT RELATED TO THE USE THEREOF” (TAISHO PHARMECUTICAL CO., LTD., priority 2004, published 2009).
# Molecular target: MCH receptor (Homo sapiens, UniProt Q99705)
# Assay: Receptor binding assay with Radiolabelled MCH Ligand
# Design: expressed in transfected cells; host or cells: 293 cells (human kidney, ATCC), transient transfection; crude membranes
# Settings: class by percent of control at 10^-7 M or IC50
# Excerpt: In addition to the methods described herein, another means for evaluating a test compound is by determining binding affinities to the MCH receptor. This type of assay generally requires a radiolabelled ligand to the MCH receptor. Absent the use of known ligands for the MCH receptor and radiolabels thereof, compounds of Formula (I) can be labelled with a radioisotope and used in an assay for evaluating the affinity of a test compound to the MCH receptor.
# A radiolabelled MCH compound of Formula (I) can be used in a screening assay to identify/evaluate compounds. In general terms, a newly synthesized or identified compound (i.e., test compound) can be evaluated for its ability to reduce binding of the “radiolabelled compound of Formula (I)” to the MCH receptor. Accordingly, the ability to compete with the “radio-labelled compound of Formula (I)” or Radiolabelled MCH Ligand for the binding to the MCH receptor directly correlates to its binding affinity of the test compound to the MCH receptor.
# 293 cells (human kidney, ATCC), transiently transfected with 10 μg human MCH receptor and 60 μl Lipofectamine (per 15-cm dish), are grown in the dish for 24 hours (75% confluency) with a media change and removed with 10 mL/dish of Hepes-EDTA buffer (20 mM Hepes+10 mM EDTA, pH 7.4). The cells are then centrifuged in a Beckman Coulter centrifuge for 20 minutes, 17,000 rpm (JA-25.50 rotor). Subsequently, the pellet is resuspended in 20 mM Hepes+1 mM EDTA, pH 7.4 and homogenized with a 50-mL Dounce homogenizer and again centrifuged. After removing the supernatant, the pellets can be stored at −80° C., until used in binding assay. When used in the assay, membranes are thawed on ice for 20 minutes and then 10 mL of incubation buffer (20 mM Hepes, 1 mM MgCl2, 100 mM NaCl, pH 7.4) added. The membranes are then vortexed to resuspend the crude membrane pellet and homogenized with a Brinkmann PT-3100 Polytron homogenizer for 15 seconds at setting 6. The concentration of membrane protein is determined using the BRL Bradford protein assay.
# For total binding, a total volume of 50 ul of appropriately diluted membranes (diluted in assay buffer containing 50 mM Tris HCl (pH 7.4), 1 mM MgCl2, and 1 mM EDTA; 5-50 ug protein) is added to 96-well polyproylene microtiter plates followed by addition of 100 μl of assay buffer and 50 μl of Radiolabelled MCH Ligand. For nonspecific binding, 50 μl of assay buffer is added instead of 100 μl and an additional 50 μl of 10 uM cold MCH is added before 50 μl of Radiolabelled MCH Ligand is added. Plates are then incubated at room temperature for 60-120 minutes. The binding reaction is terminated by filtering assay plates through a Microplate Devices GF/C Unifilter filtration plate with a Brandell 96-well plate harvester followed by washing with cold 50 mM Tris HCl, pH 7.4 containing 0.9% NaCl. Then, the bottom of the filtration plate are sealed, 50 ul of Optiphase Supermix is added to each well, the top of the plates are sealed, and plates are counted in a Trilux MicroBeta scintillation counter. For compound competition studies, instead of adding 100 μl of assay buffer, 100 μl of appropriately diluted test compound is added to appropriate wells followed by addition of 50 μl of Radiolabelled MCH Ligand.
# The test compounds are initially assayed at 1 and 0.1 μM and then at a range of concentrations chosen such that the middle dose would cause about 50% inhibition of a Radiolabelled MCH Ligand binding (i.e., IC50). Specific binding in the absence of test compound (BO) is the difference of total binding (BT) minus non-specific binding (NSB) and similarly specific binding (in the presence of test compound) (B) is the difference of displacement binding (BD) minus non-specific binding (NSB). IC50 is determined from an inhibition response curve, logit-log plot of % B/BO vs. concentration of test compound.
# Ki is calculated by the Cheng and Prustoff transformation: […]
# Chain of MCH receptor (Q99705 whole entry): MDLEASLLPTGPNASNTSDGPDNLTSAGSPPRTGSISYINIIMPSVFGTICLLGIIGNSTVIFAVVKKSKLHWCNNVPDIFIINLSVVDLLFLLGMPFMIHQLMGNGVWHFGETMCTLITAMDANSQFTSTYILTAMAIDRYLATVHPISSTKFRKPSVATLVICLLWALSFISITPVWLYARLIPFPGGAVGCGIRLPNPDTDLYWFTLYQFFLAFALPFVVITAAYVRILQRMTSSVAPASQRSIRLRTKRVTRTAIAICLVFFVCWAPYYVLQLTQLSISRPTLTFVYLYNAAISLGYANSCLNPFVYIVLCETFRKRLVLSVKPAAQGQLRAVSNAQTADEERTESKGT
row,SMILES,class
1,Cc1nc(N[C@H]2CC[C@@H](NC(=O)c3cnn(-c4ccccc4)c3C(F)(F)F)CC2)cc(N(C)C)n1 [compound 238],3 (Class 3: The value of percent of control at 10^−7 M was more than 60% or the value of IC50 was more than 200 nM.)
2,Cc1nc(N[C@H]2CC[C@@H](NC(=O)COc3ccccc3[N+](=O)[O-])CC2)cc(N(C)C)n1 [compound 239],3 (Class 3: The value of percent of control at 10^−7 M was more than 60% or the value of IC50 was more than 200 nM.)
3,Cc1nc(N[C@H]2CC[C@@H](NC(=O)c3cnc4ccccc4n3)CC2)cc(N(C)C)n1 [compound 240],3 (Class 3: The value of percent of control at 10^−7 M was more than 60% or the value of IC50 was more than 200 nM.)
4,"Cc1nc(N[C@H]2CC[C@@H](NC(=O)c3cccc(C(F)(F)F)c3)CC2)cc(N(C)C)n1 [compound 241, N-(cis-4-{[6-(dimethylamino)-2-methylpyrimidin-4-yl]amino}cyclohexyl)-3-(trifluoromethyl)benzamide]",3 (Class 3: The value of percent of control at 10^−7 M was more than 60% or the value of IC50 was more than 200 nM.)
5,Cc1ccc(C(=O)N[C@H]2CC[C@@H](Nc3cc(N(C)C)nc(C)n3)CC2)cc1 [compound 242],3 (Class 3: The value of percent of control at 10^−7 M was more than 60% or the value of IC50 was more than 200 nM.)
6,Cc1nc(N[C@H]2CC[C@@H](NC(=O)c3cccs3)CC2)cc(N(C)C)n1 [compound 243],3 (Class 3: The value of percent of control at 10^−7 M was more than 60% or the value of IC50 was more than 200 nM.)
7,Cc1nc(N[C@H]2CC[C@@H](NC(=O)COc3c(F)c(F)c(F)c(F)c3F)CC2)cc(N(C)C)n1 [compound 244],3 (Class 3: The value of percent of control at 10^−7 M was more than 60% or the value of IC50 was more than 200 nM.)
8,COc1ccc(CC(=O)N[C@H]2CC[C@@H](Nc3cc(N(C)C)nc(C)n3)CC2)cc1OC [compound 245],3 (Class 3: The value of percent of control at 10^−7 M was more than 60% or the value of IC50 was more than 200 nM.)
9,Cc1nc(N[C@H]2CC[C@@H](NC(=O)CSc3ccccc3)CC2)cc(N(C)C)n1 [compound 246],3 (Class 3: The value of percent of control at 10^−7 M was more than 60% or the value of IC50 was more than 200 nM.)
10,Cc1nc(N[C@H]2CC[C@@H](NC(=O)c3cccc4c3-c3ccccc3C4=O)CC2)cc(N(C)C)n1 [compound 247],3 (Class 3: The value of percent of control at 10^−7 M was more than 60% or the value of IC50 was more than 200 nM.)
11,Cc1nc(N[C@H]2CC[C@@H](NC(=O)c3ccc(OC(F)(F)F)cc3)CC2)cc(N(C)C)n1 [compound 248],3 (Class 3: The value of percent of control at 10^−7 M was more than 60% or the value of IC50 was more than 200 nM.)
12,Cc1nc(N[C@H]2CC[C@@H](NC(=O)c3ccc(F)cc3C(F)(F)F)CC2)cc(N(C)C)n1 [compound 249],3 (Class 3: The value of percent of control at 10^−7 M was more than 60% or the value of IC50 was more than 200 nM.)
13,Cc1nc(N[C@H]2CC[C@@H](NC(=O)Cc3ccc(F)cc3)CC2)cc(N(C)C)n1 [compound 250],3 (Class 3: The value of percent of control at 10^−7 M was more than 60% or the value of IC50 was more than 200 nM.)
14,CCCCCCCOc1ccc(C(=O)N[C@H]2CC[C@@H](Nc3cc(N(C)C)nc(C)n3)CC2)cc1 [compound 251],3 (Class 3: The value of percent of control at 10^−7 M was more than 60% or the value of IC50 was more than 200 nM.)
15,CCCCCc1ccc(C(=O)N[C@H]2CC[C@@H](Nc3cc(N(C)C)nc(C)n3)CC2)cc1 [compound 252],3 (Class 3: The value of percent of control at 10^−7 M was more than 60% or the value of IC50 was more than 200 nM.)
16,"Cc1nc(N[C@H]2CC[C@@H](NC(=O)C3CCCC3)CC2)cc(N(C)C)n1 [compound 253, N-(cis-4-{[6-(dimethylamino)-2-methylpyrimidin-4-yl]amino}cyclohexyl)cyclopentanecarboxamide]",3 (Class 3: The value of percent of control at 10^−7 M was more than 60% or the value of IC50 was more than 200 nM.)
17,CCCCCCCCCc1ccc(C(=O)N[C@H]2CC[C@@H](Nc3cc(N(C)C)nc(C)n3)CC2)cc1 [compound 254],3 (Class 3: The value of percent of control at 10^−7 M was more than 60% or the value of IC50 was more than 200 nM.)
18,Cc1nc(N[C@H]2CC[C@@H](NC(=O)COc3ccc(C(C)(C)C)cc3)CC2)cc(N(C)C)n1 [compound 255],3 (Class 3: The value of percent of control at 10^−7 M was more than 60% or the value of IC50 was more than 200 nM.)
19,"Cc1nc(N[C@H]2CC[C@@H](NC(=O)c3ccc(F)c(Cl)c3)CC2)cc(N(C)C)n1 [compound 256, 3-chloro-N-(cis-4-{[6-(dimethylamino)-2-methylpyrimidin-4-yl]amino}cyclohexyl)-4-fluorobenzamide]",1 (Class 1: The value of percent of control at 10^−7 M was less than 40% or the value of IC50 was less than 50 nM.)
20,Cc1nc(N[C@H]2CC[C@@H](NC(=O)CC3CCCC3)CC2)cc(N(C)C)n1 [compound 257],3 (Class 3: The value of percent of control at 10^−7 M was more than 60% or the value of IC50 was more than 200 nM.)
21,Cc1nc(N[C@H]2CC[C@@H](NC(=O)CCc3ccccc3)CC2)cc(N(C)C)n1 [compound 258],3 (Class 3: The value of percent of control at 10^−7 M was more than 60% or the value of IC50 was more than 200 nM.)
22,Cc1nc(N[C@H]2CC[C@@H](NC(=O)c3ccc(C#N)cc3)CC2)cc(N(C)C)n1 [compound 259],3 (Class 3: The value of percent of control at 10^−7 M was more than 60% or the value of IC50 was more than 200 nM.)
23,Cc1nc(NC2CCC(NC(=O)C(Cc3ccccc3)NS(=O)(=O)c3cccc4ccccc34)CC2)cc(N(C)C)n1 (centres unmarked) [compound 260],3 (Class 3: The value of percent of control at 10^−7 M was more than 60% or the value of IC50 was more than 200 nM.)
24,Cc1nc(N[C@H]2CC[C@@H](NC(=O)c3ccc(SC(F)(F)F)cc3)CC2)cc(N(C)C)n1 [compound 261],3 (Class 3: The value of percent of control at 10^−7 M was more than 60% or the value of IC50 was more than 200 nM.)
25,Cc1nc(N[C@H]2CC[C@@H](NC(=O)/C=C/c3cccc(C(F)(F)F)c3)CC2)cc(N(C)C)n1 [compound 262],3 (Class 3: The value of percent of control at 10^−7 M was more than 60% or the value of IC50 was more than 200 nM.)
26,Cc1nc(N[C@H]2CC[C@@H](NC(=O)/C=C/c3ccc([N+](=O)[O-])cc3)CC2)cc(N(C)C)n1 [compound 263],3 (Class 3: The value of percent of control at 10^−7 M was more than 60% or the value of IC50 was more than 200 nM.)
27,Cc1nc(N[C@H]2CC[C@@H](NC(=O)Cc3ccccc3Br)CC2)cc(N(C)C)n1 [compound 264],3 (Class 3: The value of percent of control at 10^−7 M was more than 60% or the value of IC50 was more than 200 nM.)
28,Cc1nc(N[C@H]2CC[C@@H](NC(=O)/C=C/c3ccccc3Cl)CC2)cc(N(C)C)n1 [compound 265],3 (Class 3: The value of percent of control at 10^−7 M was more than 60% or the value of IC50 was more than 200 nM.)
29,Cc1nc(N[C@H]2CC[C@@H](NC(=O)c3cccnc3Sc3ccccc3)CC2)cc(N(C)C)n1 [compound 266],3 (Class 3: The value of percent of control at 10^−7 M was more than 60% or the value of IC50 was more than 200 nM.)
